What all share (format): toxicity, cell-based
Data set [1] has as its system HEK-293T. Nature of the data set: Incucyte cell viability with HEK293T. The conditions noted are these: human, 10 µM, compound concentration 10 uM.
For data set [2], the system named is Fibroblast. Nature of the data set: Incucyte cell viability with human fibroblast. As to conditions: 10 µM, compound concentration 10 uM.
In data set [3] the test system is U2OS. Nature of the data set: Incucyte cell viability with U2OS. As to conditions: human, 10 µM, compound concentration 10 uM.
Where [4] appears, read: 0 h, replicate number 1, timepoint 0 hours.
Where [5] appears, read: 12 h, replicate number 1, timepoint 12 hours.
Where [6] appears, read: 18 h, replicate number 1, timepoint 18 hours.
The mark [7] stands for this setting: 24 h, replicate number 1, timepoint 24 hours.
Setting [8] is: 12 h, replicate number 2, timepoint 12 hours.
Setting [9] is: 18 h, replicate number 2, timepoint 18 hours.
[10] abbreviates: 24 h, replicate number 2, timepoint 24 hours.
The mark [11] stands for this setting: 0 h, replicate number 2, timepoint 0 hours.
Where [12] appears, read: 6 h, replicate number 1, timepoint 6 hours.
Where [13] appears, read: 6 h, replicate number 2, timepoint 6 hours.
Also: unitless GR value; below 1 slowed growth and below 0 cell loss.

On to `CN(C)C(=O)Cn1cc(-c2ccc(-c3cncc4ccccc34)cc2)cn1`, for which the “Growth Rate” value in data set [1] (setting [4]) is given as 0.84; in data set [1] (setting [5]), 0.97; in data set [1] (setting [6]) it was 0.9; in data set [1] (setting [7]), 0.9; in data set [2] (setting [5]), 0.27; in data set [2] (setting [8]), 1. In addition, the “Growth Rate” value in data set [2] (setting [6]) was 0.21; in data set [2] (setting [9]), 0.82; in data set [2] (setting [7]), 0.05; in data set [2] (setting [10]) it was 0.61; in data set [3] (setting [4]), -0.34; in data set [3] (setting [11]), 0.27. In addition, the “Growth Rate” value came to 0.31 in data set [3] (setting [12]); 0.79 in data set [3] (setting [13]); 0.43 in data set [3] (setting [5]); 0.74 in data set [3] (setting [8]); 0.59 in data set [3] (setting [6]); 0.76 in data set [3] (setting [9]). In addition, the “Growth Rate” value turned out to be 0.7 in data set [3] (setting [7]) and 0.86 in data set [3] (setting [10]).
Turning to `CC(C)c1noc(N2CCC(COc3ccc(-c4ccc(S(C)(=O)=O)cc4)nc3)CC2)n1` [GSK-1292263], the “Growth Rate” value in data set [1] (setting [12]) is given as -0.15; in data set [1] (setting [13]) it was -0.07; in data set [1] (setting [5]), 0.09; in data set [1] (setting [8]), 0.17; in data set [1] (setting [6]) it was 0.14; in data set [1] (setting [9]) it was 0.41. In addition, the “Growth Rate” value in data set [1] (setting [7]) is reported as 0.22; in data set [1] (setting [10]) it was 0.55; in data set [2] (setting [4]), -0.57; in data set [2] (setting [11]), 0.61; in data set [2] (setting [13]), -0.06; in data set [2] (setting [8]) it was 0.41. The “Growth Rate” value in data set [2] (setting [6]) is recorded as 0.53; in data set [2] (setting [9]) it was 0.76; in data set [3] (setting [4]) it was -0.92; in data set [3] (setting [11]) it was -0.96; in data set [3] (setting [8]) it was 0.96; in data set [3] (setting [6]), 0.91. For the same compound, the “Growth Rate” value in data set [3] (setting [9]) is given as 0.85.
Consider `COC[C@@H](CC(C)C)NC1=N/C(=C\c2ccc3ncsc3c2)C(=O)N1C`, for which the “Growth Rate” value in data set [1] (setting [4]) is recorded as -0.43; in data set [1] (setting [11]), -0.15; in data set [1] (setting [12]) it was 0.84; in data set [1] (setting [5]) it was 0.24; in data set [1] (setting [8]) it was 0.41; in data set [1] (setting [6]) it was 0.39. Also, the “Growth Rate” value in data set [1] (setting [9]) is reported as 0.38; in data set [1] (setting [7]), 0.48; in data set [1] (setting [10]), 0.42; in data set [2] (setting [4]) it was 0.25; in data set [2] (setting [11]) it was -0.23; in data set [3] (setting [11]) it was 0.78. Also, the “Growth Rate” value in data set [3] (setting [5]) came to 0.43; in data set [3] (setting [8]) it was 0.53; in data set [3] (setting [6]), 0.22; in data set [3] (setting [9]) it was 0.38; in data set [3] (setting [7]), 0.25; in data set [3] (setting [10]), 0.35.
On to `CCCCOCCOc1nc(-c2ccc(C(=O)O)c(F)c2)sc1C`, for which the “Growth Rate” value is given as 0.61 in data set [1] (setting [4]); 0.25 in data set [1] (setting [11]); 0.87 in data set [1] (setting [13]); 0.88 in data set [1] (setting [8]); 0.94 in data set [1] (setting [6]); 0.82 in data set [1] (setting [9]). Moreover, the “Growth Rate” value is 0.95 in data set [1] (setting [7]); 0.69 in data set [1] (setting [10]); -0.25 in data set [2] (setting [11]); 0.05 in data set [2] (setting [12]); 0.16 in data set [2] (setting [5]); 0.63 in data set [2] (setting [8]). The “Growth Rate” value in data set [2] (setting [6]) was 0.35; in data set [2] (setting [9]), 0.73; in data set [2] (setting [7]), 0.23; in data set [2] (setting [10]) it was 0.7; in data set [3] (setting [4]), -0.03; in data set [3] (setting [11]), -0.3. The “Growth Rate” value in data set [3] (setting [12]) is 0.21; in data set [3] (setting [13]) it was 0.97; in data set [3] (setting [5]) it was 0.49; in data set [3] (setting [6]), 0.88; in data set [3] (setting [9]), 0.86; in data set [3] (setting [7]), 0.94. Further, the “Growth Rate” value in data set [3] (setting [10]) is 0.84.
Regarding `CN1[C@@H]2CC[C@H]1C[C@@H](OC(=O)C(CO)c1ccccc1)C2` (some centres undefined) [ATROPINE], the “Growth Rate” value in data set [1] (setting [12]) is given as 0.9; in data set [1] (setting [13]), 0.19; in data set [1] (setting [5]), 0.68; in data set [1] (setting [8]), 0.53; in data set [1] (setting [6]), 0.6; in data set [1] (setting [9]) it was 0.65. For the same compound, the “Growth Rate” value in data set [1] (setting [7]) is recorded as 0.44; in data set [1] (setting [10]), 0.6; in data set [2] (setting [4]), -0.04; in data set [2] (setting [11]) it was -0.32; in data set [2] (setting [9]), 0.91; in data set [3] (setting [12]), 0.86. Further, the “Growth Rate” value worked out at 0.79 in data set [3] (setting [5]), 0.96 in data set [3] (setting [8]) and 0.95 in data set [3] (setting [9]).
Turning to `O=C(O)CCC/C=C\CC1C(O)CC(O)C1/C=C/C(O)COc1cccc(Cl)c1` (centres undefined) [CLOPROSTENOL], the “Growth Rate” value in data set [1] (setting [11]) was found to be 0.63; in data set [1] (setting [12]), 0.34; in data set [1] (setting [13]), 0.93; in data set [1] (setting [5]), 0.74; in data set [1] (setting [6]) it was 0.75; in data set [1] (setting [9]), 0.99. For the same compound, the “Growth Rate” value was 0.95 in data set [1] (setting [7]); 0.34 in data set [2] (setting [11]); -0.06 in data set [2] (setting [12]); 0.25 in data set [2] (setting [5]); 0.2 in data set [2] (setting [6]); 0.18 in data set [2] (setting [7]). Also, the “Growth Rate” value was -0.27 in data set [3] (setting [4]), -0.99 in data set [3] (setting [11]), 0.74 in data set [3] (setting [13]) and 0.7 in data set [3] (setting [6]).
In the case of `CCCN(CCc1cccs1)[C@H]1CCc2c(O)cccc2C1` [ROTIGOTINE], the “Growth Rate” value in data set [1] (setting [4]) is given as 0.77; in data set [1] (setting [11]), -1; in data set [1] (setting [7]) it was 0.99; in data set [2] (setting [11]) it was -0.39; in data set [2] (setting [12]), 0.1; in data set [2] (setting [5]), 0.84. For the same compound, the “Growth Rate” value in data set [3] (setting [4]) worked out at 0.77; in data set [3] (setting [12]), 0.95; in data set [3] (setting [5]) it was 0.96.
Take `CN1C[C@@H](NS(=O)(=O)N(C)C)C[C@@H]2c3cccc4c3c(cn4C)C[C@H]21.Cl` [MESULERGINE HYDROCHLORIDE]: the “Growth Rate” value in data set [1] (setting [4]) is 0.52; in data set [1] (setting [11]), 0.55; in data set [1] (setting [8]) it was 0.91; in data set [2] (setting [13]) it was -0.13; in data set [2] (setting [8]), 0.81; in data set [3] (setting [4]) it was 0.87. Further, the “Growth Rate” value in data set [3] (setting [13]) was 0.84; in data set [3] (setting [6]), 0.99; in data set [3] (setting [10]), 0.99.
Take `Cc1ccc(F)cc1C(=O)Nc1ccc(C(=O)N2Cc3cccn3Cc3ccccc32)c(Cl)c1` [LIXIVAPTAN]: the “Growth Rate” value is reported as 0.91 in data set [1] (setting [4]); -0.13 in data set [2] (setting [4]); 0.63 in data set [2] (setting [12]); 0.2 in data set [2] (setting [13]); 0.59 in data set [2] (setting [8]); 0.75 in data set [2] (setting [9]). Moreover, the “Growth Rate” value in data set [2] (setting [7]) is 0.45; in data set [3] (setting [4]) it was -0.09; in data set [3] (setting [12]), 0.32; in data set [3] (setting [13]) it was 0.89; in data set [3] (setting [9]), 0.89; in data set [3] (setting [7]), 0.9. In addition, in data set [3] (setting [10]), the “Growth Rate” value is 0.94.

Source of the values: ChEMBL document CHEMBL5058564, “EUbOPEN Chemogenomics Library 2 (Incucyte)” (2022).
